In US6713475B2, “Tricyclic benzodiazepines as vasopressin receptor antagonists” (Ortho-McNeil Pharmaceutical, Inc., priority 1999, dated 2004):

How the values were obtained:
human V-1 receptor = target: T1, human V-1 receptor (Homo sapiens, UniProt P37288); experiment: In vitro recombinant vasopressin receptor binding assay (V1 Bdg), displacement of 3H-arginine vasopressin; details: read-out: V1 Bdg (% inh, 0.1 uM)
T1 construct: expressed in transfected cells; host or cells: HEK-293
How it was run: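 Membranes from HEK-293 cells bearing cloned human V-1 receptor, incubated 1 h at room temperature with 0.65-0.75 nM 3H-arginine-8-vasopressin in pH 7.5 Tris/MgCl2/BSA buffer with protease inhibitors. Filtration onto GF/C, scintillation count. Non-specific binding with 1.25 uM arginine-8-vasopressin.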

V2 [1] = target: T2, V2 (Homo sapiens, UniProt P30518); experiment: V2 cAMP; type: cell-based
T2 sequence (P30518 whole entry): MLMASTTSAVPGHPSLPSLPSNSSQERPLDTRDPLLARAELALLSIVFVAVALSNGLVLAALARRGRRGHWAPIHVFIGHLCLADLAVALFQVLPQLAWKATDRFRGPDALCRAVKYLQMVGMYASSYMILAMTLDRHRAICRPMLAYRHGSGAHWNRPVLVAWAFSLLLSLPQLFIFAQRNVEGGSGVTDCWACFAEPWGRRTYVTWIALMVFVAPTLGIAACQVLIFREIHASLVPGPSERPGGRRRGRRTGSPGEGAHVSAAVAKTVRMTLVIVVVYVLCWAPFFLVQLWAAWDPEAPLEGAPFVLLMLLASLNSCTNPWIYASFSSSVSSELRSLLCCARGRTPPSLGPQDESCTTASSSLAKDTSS

V2 [2] = target: T2, V2; experiment: In vitro recombinant vasopressin receptor binding assay (V2 Bdg), displacement of 3H-arginine vasopressin; design: expressed in transfected cells; host or cells: HEK-293; details: membrane with cloned human V-2 receptor (HEK-293)
How it was run: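 Displacement of ³H-vasopressin from membranes of HEK-293 cells bearing cloned human V-2 receptor, incubated with test compound one hour at room temperature. Bound label was collected on PEI-soaked GF/C filters, washed with cold saline/0.05% Tween 20, and counted by scintillation.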

[3] = test system: vasopressin-induced hypertension in anesthetized rats; experiment: Reversal of vasopressin-induced hypertension in rats (intraduodenal dosing); type: in vivo, rat; details: I.D. dose 10 mg/kg, single dose into the duodenum, maximum percent reversal, monitored for 60 minutes
Description: Reversal of Vasopressin-Induced Hypertension in Rats
The anti-hypertensive activity of compounds was screened in an anesthetized model of vasopressin-induced hypertension. Male Long Evans, normotensive rats of between 350 and 450 g in body weight were anesthetized with pentobarbital (35 mg/kg, ip) and maintained throughout the procedure with an ip infusion of 10 mg/kg/hr. Arginine vasopressin was infused at 30 ng/kg/min, iv, to induce a stable hypertensive state (ca. 50 mmHg increase in mean arterial blood pressure). Compounds of interest were administered in an ascending dose fashion and the maximum decrease in mean arterial blood pressure was recorded. An ED50 was determined from the linear portion of the dose-response relationship for each animal.
This model was modified slightly to assess the bioavailability of compounds of interest. Rather than dosing the animals iv in an ascending dose fashion, a single dose per animal was administered directly into the duodenum. The anti-hypertensive effects were then monitored for 60 minutes and the maximum percent reversal was calculated.

T1 sequence (P37288 whole entry): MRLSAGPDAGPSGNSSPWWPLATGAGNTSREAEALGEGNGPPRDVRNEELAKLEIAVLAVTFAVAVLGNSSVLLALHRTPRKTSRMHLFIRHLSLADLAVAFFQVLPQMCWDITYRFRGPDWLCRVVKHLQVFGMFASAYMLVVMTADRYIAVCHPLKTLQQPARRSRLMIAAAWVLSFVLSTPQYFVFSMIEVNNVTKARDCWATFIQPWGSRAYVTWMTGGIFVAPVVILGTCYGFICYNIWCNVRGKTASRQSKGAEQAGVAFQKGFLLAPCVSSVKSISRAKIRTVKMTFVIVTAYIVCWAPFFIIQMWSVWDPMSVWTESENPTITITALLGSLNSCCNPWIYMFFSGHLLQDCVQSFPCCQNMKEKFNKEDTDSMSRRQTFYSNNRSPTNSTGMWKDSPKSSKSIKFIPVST

inhibition at 0.1 µM (human V-1 receptor)	IC50 (V2 [1])	IC50 (V2 [2])	SMILES	BP Reduction (%) [3]
29%	460 nM	14 nM	O=C(Nc1ccc(C(=O)N2CC3CC=CCN3Cc3ccccc32)cc1)c1ccccc1-c1ccccc1 (stereo not drawn) [Compound 2, 10-[4-[[(2-Biphenyl)carbonyl]amino]benzoyl]-10,11-dihydro-5H-(tetrahydropyridino)[2,1-c][1,4]benzodiazepine]	–
–	11 nM	2 nM	O=C(Nc1ccc(C(=O)N2C[C@H]3COCCN3Cc3ccccc32)c(Cl)c1)c1ccccc1-c1ccccc1 [Compound 4, (S)-2-Phenyl-N-[3-chloro-4-(1,3,4,12a-tetrahydro-6H-[1,4]oxazino[4,3-a][1,4]-benzodiazepin-11(12H)-yl-carbonyl)phenyl]benzamide]	100%
42%	–	–	O=C(Nc1ccc(C(=O)N2CC3CSCCN3Cc3ccccc32)cc1)c1ccccc1-c1ccccc1 (racemic) [Compound 3, (RS)-2-Phenyl-N-[4-(1,3,4,12a-tetrahydro-6H-[1,4]thiazino[4,3-a][1,4]-benzodiazepin-11(12H)-yl-carbonyl)phenyl]benzamide]	100%
31%	210 nM	9 nM	O=C(Nc1ccc(C(=O)N2CC3CCCCN3Cc3ccccc32)cc1)c1ccccc1-c1ccccc1 (stereo not drawn) [Compound 1, 10-[4-[[(2-Biphenyl)carbonyl]amino]benzoyl]-10,11-dihydro-5H-piperidino[2,1-c][1,4]benzodiazepine]	67%
